The source of these data is US8410109B2, “Pharmaceutical compositions for the prevention and treatment of complex diseases and their delivery by insertable medical devices” (Resverlogix Corp., priority 2005, dated 2013).

Molecules are shown by their SMILES. Counter-ions that a name gives are not always drawn.

Data set [1] has as its system MCP-1. As to the kind of experiment: MCP-1 ELISA on culture media of TNF-α stimulated HUVECs. It counts as cell-based. Particulars: Homo sapiens, HUVEC, approx. 16 hours. On the procedure:
(§1) Compounds were dissolved in DMSO, aliquoted, and stored at −20° C. Cultured human vascular endothelial cells (HUVECs) were seeded in 96-well plates in complete EGM-2 media (˜100 μL/well); cells were plated at ˜2-3×10^5/mL, and were from passage 8 to 12. Cells were incubated overnight. On the following day cells are stimulated with TNF-α (˜1 ng/mL) in the presence or absence of compounds dissolved in DMSO. Triplicate wells were used for each test. To establish a dose curve and an IC50, multiple concentrations in 2- to 5-fold increments were used. Cells were exposed to TNF-α and compounds for approximately 16 hours. The next day, cells were visually examined via light microscopy to score for visual signs of toxicity. Cell culture media was analyzed using an MCP-1 ELISA. Cells were refed (−100 μL/well) with 20% CellTiter 96. Aqueous One Cell Proliferation Solution (Promega), 80% EGM-2 medium. Media optical density (at 490 nm) was determined after 1 hour. Plates were aspirated and cell lysates were prepared and these lysates were tested using a VCAM-1 ELISA.
(§2) In Table 2, a positive result (+) was defined as at least 50% inhibition of the protein levels MCP-1 or VCAM-1, as determined by the ELISA.
A general note: In an ELISA, binding on a coated surface is turned into a signal by an enzyme label.

For data set [2], the system named is Human coronary artery smooth muscle cells (CASMCs). As to the kind of experiment: Smooth muscle cell proliferation protocol. The class given is cell-based. The conditions noted are these: 72 hours, read-out: % Inhibition of SMC Proliferation. On the procedure:
Compounds were dissolved in DMSO, aliquoted, and stored at −20° C. Human coronary artery smooth muscle cells (CASMCs) were plated in 96-well plates and were grown in SmBM-2 media. After 1-2 hours, media was aspirated and replaced with serum-free ME/F12 media, except the controls. Cells were incubated for a further 48 hours. Compounds were diluted in DME/F12 containing 10% FBS. Media was aspirated from the plates and compounds in DME/F12 containing 10% FBS. Six wells were used per condition and duplicate plates were used. Cells were incubated for a further 72 hours. Media was aspirated from one set of plates; those cells were refed (˜100 μL/well) with 20% CellTiter 96 Aqueous One Cell Proliferation Solution (Promega), 80% EGM-2 medium. Media optical density (at 490 nm) was determined after 3-4 hours. In the second set of plates, serum-free DME/F12 media (20 μL) was added to each well. Part of the supernatant (50 μL) was removed and placed in an ELISA plate and was stored temporarily at 4° C. The remaining media and cells in the second set of plates were freeze-thawed for four cycles. The lysates and supernatants were mixed and centrifuged. Part of the supernatant (50 μL) was removed and placed in an ELISA plate. The Promega Cytotox assay was performed on the ELISA plates. The ratio of supernatant OD to supernatant+cell lysate OD was determined.
In Table 2, a positive result (+) was defined as at least 40% inhibition of the proliferation of SMC, as determined by the assay.

Data set [3] relates to VCAM-1. The data set can be described thus: VCAM-1 ELISA on lysates of TNF-α stimulated HUVECs. It counts as cell-based. Particulars: Homo sapiens, HUVEC, approx. 16 hours. On the procedure:
as §1, §2

Regarding `CN(C)Cc1ccc2c(=O)cc(-c3ccc(O)cc3)oc2n1` (as salt: hydrochloride) [EXAMPLE 26, 7-((dimethylamino)methyl-2-(4-hydroxyphenyl)-4H-pyrano[2,3-b]pyridin-4-one dihydrochloride], the melting point is 205 °C.
In the case of `CN(C)CCOc1ccc(-c2cc(=O)c3cccnc3o2)cc1` (as salt: hydrochloride) [EXAMPLE 27, 2-(4-(2-(dimethylamino)ethoxy)phenyl)-4H-pyrano[2,3-b]pyridin-4-one dihydrochloride], the melting point is 236 to 238 °C.
`O=c1cc(-c2ccncc2)oc2ncccc12` (as salt: hydrochloride) [EXAMPLE 30, 2-(pyridin-4-yl)-4H-pyrano[2,3-b]pyridin-4-one hydrochloride] registered a melting point of 248 to 250 °C.
As to `Cc1cc(-c2cc(=O)c3cccnc3o2)cc(C)c1OCCN1CCOCC1` (as salt: hydrochloride) [EXAMPLE 31, 2-(3,5-dimethyl-4-(2-morpholinoethoxy)phenyl)-4H-pyrano[2,3-b]pyridin-4-one hydrochloride], the melting point lay in the range of 276 to 278 °C.
The same measure, in the same setting: with `Cc1cc(-c2cc(=O)c3cc(CN4CCCC4)cnc3o2)cc(C)c1O` (as salt: hydrochloride) [EXAMPLE 33, 2-(4-hydroxy-3,5-dimethylphenyl)-6-(pyrrolidin-1-ylmethyl)-4H-pyrano[2,3-b]pyridin-4-one dihydrochloride] the figure was 337 to 338 °C; with `COc1cc(OC)c2c(=O)cc(-c3ccncc3)oc2c1` (as salt: hydrochloride) [EXAMPLE 34, 5,7-dimethoxy-2-(pyridin-4-yl)-4H-chromen-4-one hydrochloride], 234 to 235 °C.
`O=c1cc(-c2ccccc2)oc2ncc(CN3CCCC3)cc12` (as salt: hydrochloride) [EXAMPLE 35, 2-phenyl-6-(pyrrolidin-1-ylmethyl)-4H-pyrano[2,3-b]pyridin-4-one hydrochloride] came in with a melting point of 294 to 296 °C.
For `O=c1cc(-c2ccc(F)cc2)oc2ncc(CN3CCCC3)cc12` (as salt: hydrochloride) [EXAMPLE 37, 2-(4-fluorophenyl)-6-(pyrrolidin-1-ylmethyl)-4H-pyrano[2,3-b]pyridin-4-one hydrochloride], the melting point was 265 to 268 °C.
`Nc1ccc(-c2cc(=O)c3cccnc3o2)cc1` (as salt: hydrochloride) [EXAMPLE 38, 2-(4-aminophenyl)-4H-pyrano[2,3-b]pyridin-4-one hydrochloride] displayed a melting point of 254 to 255 °C.
`Cc1cc(-c2cc3ncccc3c(=O)[nH]2)cc(C)c1O` (as salt: hydrochloride) [EXAMPLE 40, 7-(4-hydroxy-3,5-dimethylphenyl)-1,6-naphthyridin-5(6H)-one hydrochloride] came in with a melting point of over 350 °C.
Molecule `COc1cc(O)nc2cc(-c3cc(C)c(O)c(C)c3)[nH]c(=O)c12` (as salt: hydrochloride) [EXAMPLE 41, 2-hydroxy-7-(4-hydroxy-3,5-dimethylphenyl)-4-methoxy-1,6-naphthyridin-5(6H)-one dihydrochloride] had a melting point of over 330 °C.
With `CNc1nc(-c2cc(C)c(O)c(C)c2)cc2ccc(CN3CCN(C)CC3)cc12` (as salt: hydrochloride) [EXAMPLE 43, 2,6-dimethyl-4-(1-(methylamino)-7-((4-methylpiperazin-1-yl)methyl)isoquinolin-3-yl)phenol trihydrochloride], the melting point is 264 to 266 °C.
Consider `O=c1cc(-c2ccc(O)cc2)oc2cnccc12` [EXAMPLE 3, 2-(4-Hydroxyphenyl)-pyrano[2,3-c]pyridin-one], for which the melting point fell in the range of 294 to 296 °C. In data set [1], this molecule yielded an inhibition at 50 µM of under 50%. The inhibition at 50 µM in data set [2] was at least 40%. Moreover, the inhibition at 50 µM in data set [3] was under 50%.
`O=c1cc(-c2ccc(O)c(F)c2)oc2ncccc12` [EXAMPLE 4, 2-(3-Fluoro-4-hydroxyphenyl)pyrano[2,3-b]pyridine-4-one] registered a melting point of 267 to 268 °C. The same molecule showed an inhibition at 50 µM in data set [1] of under 50%. For the same molecule, in data set [2], the inhibition at 50 µM is under 40%. For the same molecule, the inhibition at 50 µM in data set [3] was at least 50%.
Consider `Cc1cc(-c2cc(=O)c3cccnc3o2)ccc1O` [EXAMPLE 5, 2-(4-Hydroxy-3-methylphenyl)-4H-pyrano[2,3-b]pyridine-4-one], for which the melting point lay within 300 to 302 °C. The molecule also yielded an inhibition at 10 µM in data set [1] of under 50%. Besides, in data set [2], the inhibition at 10 µM was under 40%. In data set [3], this molecule gave an inhibition at 10 µM of under 50%.
Molecule `O=c1cc(-c2ccc(O)cc2)oc2ccncc12` [EXAMPLE 6, 2-(4-Hydroxyphenyl)-4H-pyrano[3,2-c]pyridin-4-one] had a melting point of 306 to 308 °C. In addition, the inhibition at 50 µM in data set [1] was under 50%. Moreover, in data set [2], the inhibition at 50 µM was at least 40%. The same molecule gave an inhibition at 50 µM in data set [3] of at least 50%.
Molecule `O=c1cc(-c2ccc(O)c(Cl)c2)oc2ncccc12` [EXAMPLE 7, 2-(3-Chloro-4-hydroxyphenyl)-4H-pyrano[2,3-b]pyridine-4-one] returned a melting point of 259 to 262 °C. Further, the inhibition at 50 µM in data set [1] is at least 50%. Also, the inhibition at 50 µM in data set [2] was at least 40%. In data set [3], this molecule showed an inhibition at 50 µM of at least 50%.
Consider `COc1cc(-c2cc(=O)c3cccnc3o2)ccc1O` [EXAMPLE 8, 2-(4-Hydroxy-3-methoxyphenyl)-4H-pyrano[2,3-b]pyridine-4-one], for which the melting point was in the range of 253 to 255 °C. The inhibition at 50 µM in data set [1] was under 50%. Moreover, the inhibition at 50 µM in data set [2] was under 40%. This molecule also yielded an inhibition at 50 µM in data set [3] of at least 50%.
On to `COc1ccc(-c2cc(=O)c3cccnc3o2)cc1` [EXAMPLE 9, 2-(4-Methoxyphenyl)-4H-pyrano[2,3-b]pyridine-4-one], for which the melting point lay within 269 to 270 °C. Further, the inhibition at 50 µM in data set [1] was under 50%. In addition, the inhibition at 50 µM in data set [2] is at least 40%. Moreover, in data set [3], the inhibition at 50 µM is under 50%.
As for `O=c1cc(-c2ccc(OCCO)cc2)oc2ncccc12` [EXAMPLE 10, 2-(4-(2-Hydroxyethoxy)phenyl)-4H-pyrano[2,3-b]pyridine-4-one], the melting point lay within 157 to 159 °C. This molecule also displayed an inhibition at 50 µM in data set [1] of under 50%. Further, the inhibition at 50 µM in data set [2] was at least 40%. This molecule also came in with an inhibition at 50 µM in data set [3] of under 50%.
In the case of `O=c1cc(-c2ccc(O)nc2)oc2ccccc12` [EXAMPLE 13, 2-(6-Hydroxypyridin-3-yl)-chromen-4-one], the melting point was 296 to 297 °C. The molecule also gave an inhibition at 50 µM in data set [1] of under 50%. Further, the inhibition at 50 µM in data set [2] is at least 40%. For the same molecule, the inhibition at 50 µM in data set [3] is at least 50%.
Turning to `Oc1ccc(-c2cc3ccccc3cn2)cc1` [EXAMPLE 15, 4-Isoquinolin-3-yl-phenol], the melting point lay within 218 to 219 °C. The molecule also gave an inhibition at 50 µM in data set [1] of under 50%. The inhibition at 50 µM in data set [2] is under 40%. The inhibition at 50 µM in data set [3] is at least 50%.
In the case of `COc1cc(OC)c2c(=O)[nH]c(-c3cc(C)c(OCCN4CCOCC4)c(C)c3)cc2c1` [EXAMPLE 48, 3-(3,5-dimethyl-4-(2-morpholinoethoxy)phenyl)-6,8-dimethoxyisoquinolin-1(2H)-one], the inhibition at 50 µM in data set [1] is under 50%; in data set [2], at least 40%; in data set [3], at least 50%.
For the molecule `Cc1cccc2oc(-c3ccncc3)cc(=O)c12` [EXAMPLE 49, 5-methyl-2-(pyridin-yl)-4H-chromen-4-one], the results for the inhibition at 10 µM in data set [1], in data set [2] and in data set [3] were under 50%, under 40% and under 50%, respectively.
On to `CN(C)Cc1ccc2oc(-c3ccncc3)cc(=O)c2c1` [EXAMPLE 50, 6-((dimethylamino)methyl)-2-(pyridinyl)-4H-chromen-4-one], for which the inhibition at 50 µM in data set [1] is under 50%; in data set [2], at least 40%; in data set [3] it was under 50%.
For `O=c1cc(-c2ccncc2)oc2cccc(CO)c12` [EXAMPLE 51, 5-(hydroxymethyl)-2-(pyridin-4-yl)-4H-chromen-4-one], the inhibition at 50 µM in data set [1] was under 50%; in data set [2], under 40%; in data set [3] it was under 50%.

A word on the melting point: it is the temperature, or range, at which the solid turns liquid.
